The results in this text go back to EP0583566A2, “Process for the preparation of glycine-conjugated bile acids and relative pharmaceutical compositions useful for treating hepatic insufficiency” (ERREGIERRE INDUSTRIA CHIMICA Spa, priority 1992, dated 1994).

Read-outs that look alike come from different tables or passages of the source.

Series [1] deals with hepatotoxic effects of TUDCA. Briefly: hepatoprotective activity against bile acid hepatotoxicity on co-administration. In kind it is in vivo. Particulars: 0.8 µmol/min/100g. From the text: Normal values of alkaline phosphatase (ALP) and biliary lactate dehydrogenase (LDH) as well as of bile flow and calcium secretion are thereby obtained.
A short description of series [2]: critical micellar concentration (detergent capacity). The class given is physicochemical.
The nature of a further series: uptake by the liver. The class given is in vivo. From the text:
GUDCA is well absorbed by the intestine through a double mechanism, i.e. active and passive, transported to the liver by the portal system and uptaken. It passes rapidly through the liver without being metabolized and is then secreted in the bile with high transport rate and efficiency. UDCA is absorbed only through a passive mechanism and is uptaken by liver at 50% (GUDCA at 80%).

The conditions of series [3]: in vivo. The source says:
GUDCA is well absorbed by the intestine through a double mechanism, i.e. active and passive, transported to the liver by the portal system and uptaken. It passes rapidly through the liver without being metabolized and is then secreted in the bile with high transport rate and efficiency.

Consider `C[C@H](CCC(=O)NCC(=O)O)[C@H]1CC[C@H]2[C@@H]3[C@@H](O)C[C@@H]4C[C@H](O)CC[C@]4(C)[C@H]3CC[C@]12C` [GUDCA, glycoursodeoxycholic acid], for which, in series [1] (administered with TUDCA at the same dose), the “prevention of hepatotoxic effects” value was “can prevent the hepatotoxic effects”. For the same compound, the “alkaline phosphatase (ALP) and biliary lactate dehydrogenase (LDH)” value in series [1] (for GUDCA also bile flow and calcium secretion normal) was “Normal values”. Also, the critical micellar concentration in series [2] is recorded as 12 µM. In addition, in “uptake by the liver” (in vivo), the hepatic extraction ratio was found to be 0.8. In addition, in series [3], the Fa stood at 100%. In “physchem”, this compound returned a logP of 2.
In the series “pKa”, `C[C@H](CCC(=O)NCCS(=O)(=O)O)[C@H]1CC[C@H]2[C@@H]3[C@@H](O)C[C@@H]4C[C@H](O)CC[C@]4(C)[C@H]3CC[C@]12C` [TUDCA, tauroursodeoxycholic acid] gave a pKa of roughly 1.
In the case of `C[C@H](CCC(=O)O)[C@H]1CC[C@H]2[C@@H]3[C@@H](O)C[C@@H]4C[C@H](O)CC[C@]4(C)[C@H]3CC[C@]12C` [UDCA, ursodeoxycholic acid], the hepatic extraction ratio in the series “uptake by the liver” (liver, read-out: uptaken by liver) stood at 0.5. Besides, in series [3], the Fa came to 50% and the “pH values of the intestine contents at which absorbed” value is given as 8.5.

A word on the logP: it is a log measure of how a compound divides between an organic and an aqueous phase. As usually defined, the pKa is the pH at which an ionisable group is half protonated. The low end stands for a stronger acid or weaker base, the high end for a weaker acid or stronger base.
